Source: patent publication US20140030209A1, “TOPICAL LIQUID AGENT FOR THE TREATMENT OF DERMATOPHYTOSIS” (MEIJI SEIKA PHARMA CO., LTD., priority 2012, published 2014)

What was measured:
[1] = test system: Trichophyton rubrum (T. rubrum) ATCC10218; experiment: Antifungal activity against dermatophytes (MIC, WST8); type: cell-based; conditions: 80% growth inhibiting concentration; RPMI1640/MOPS, 28° C., 4 days, 1% DMSO
Description: (§1) Measurement of the antifungal activity against dermatophytes of the compound of the formula (I) contained in the topical liquid agent of the present invention was carried out by the following method. The compound to be evaluated was used by dissolving in dimethyl sulfoxide (DMSO). As a medium for the test, RPMI1640 medium containing 0.165M of 3-morpholinopropanesulfonic acid (MOPS) was used. As fungi to be tested, Trichophyton mentagrophytes (T. mentagrophytes) ATCC18748 or Trichophyton rubrum (T. rubrum) ATCC10218 was used. The testing fungal strain was apportioned to […] with a concentration of 1×10^4 conidia/ml, mixed with a compound to be evaluated on a 96-well half area plate so that the DMSO concentration became 1%, and cultured at a cultivation temperature of 28° C. for 3 days (T. mentagrophytes) or 4 days (T. rubrum). Thereafter, 5 μl of Cell Counting Kit 8 (WST8) was added thereto, and absorbances at 450 nm and 595 nm were measured to use these as background values. Thereafter, these were cultivated at 28° C. for 5 hours (T. mentagrophytes) or overnight (T. rubrum) to cause a color, and absorbances at 450 nm and 595 nm were measured again. A growth inhibiting rate was calculated from the difference to the background values, and a 80% growth inhibiting concentration was made an MIC value […].

[2] = test system: Trichophyton mentagrophytes (T. mentagrophytes) ATCC18748; experiment: as above; type: cell-based; conditions: 80% growth inhibiting concentration; RPMI1640/MOPS, 28° C., 3 days, 1% DMSO
Description: as §1

| MIC (T. rubrum) [1] | MIC (T. mentagrophytes) [2] | SMILES |
| --- | --- | --- |
| B (4 to 16 μg/ml) | – | Cc1cc(C)n(-c2ccccc2O)n1 [compound 1] |
| D (>32 to 64 μg/ml) | – | Cc1cc(C(F)(F)F)nn1-c1ccccc1O [compound 5] |
| A (≦2 μg/ml) | A (≦1 μg/ml) | Cc1nn(-c2ccccc2O)c(C)c1C [compound 9] |
| D (>32 to 64 μg/ml) | – | Cc1cc(C)n(-c2cc(Cl)ccc2O)n1 [compound 11] |
| B (4 to 16 μg/ml) | A (≦1 μg/ml) | Cc1nn(-c2ccccc2O)c(C)c1Cl [compound 13] |
| B (4 to 16 μg/ml) | – | CCc1cc(CC)n(-c2ccccc2O)n1 [compound 14] |
| C (16 to 32 μg/ml) | – | Cc1cc(C)n(-c2cccc(O)c2O)n1 [compound 15] |
| A (≦2 μg/ml) | A (≦1 μg/ml) | CCc1c(C)nn(-c2ccccc2O)c1C [compound 17] |
| B (4 to 16 μg/ml) | – | Cc1nn(-c2ccc(F)cc2O)c(C)c1C [compound 18] |
| C (16 to 32 μg/ml) | – | Cc1nn(-c2cc(O)ccc2O)c(C)c1Cl [compound 19] |
| D (>32 to 64 μg/ml) | – | Cc1nn(-c2cc(F)ccc2O)c(C)c1C [compound 20] |
| B (4 to 16 μg/ml) | A (≦1 μg/ml) | Cc1nn(-c2ccc(F)cc2O)c(C)c1Cl [compound 21] |
| D (>32 to 64 μg/ml) | – | CCOC(=O)c1c(C)nn(-c2ccccc2O)c1C [compound 22] |
| D (>32 to 64 μg/ml) | – | COC(=O)CCc1c(C)nn(-c2ccccc2O)c1C [compound 23] |
| C (16 to 32 μg/ml) | A (≦1 μg/ml) | CCCCc1c(C)nn(-c2ccccc2O)c1C [compound 24] |
| B (4 to 16 μg/ml) | – | Cc1cc(C)n(-c2ccc(F)cc2O)n1 [compound 25] |
| A (≦2 μg/ml) | A (≦1 μg/ml) | Cc1cc(C)n(-c2ccc(Cl)cc2O)n1 [compound 26] |
| C (16 to 32 μg/ml) | – | Cc1cc(C)n(-c2ccc([N+](=O)[O-])cc2O)n1 [compound 28] |
| A (≦2 μg/ml) | A (≦1 μg/ml) | Cc1nn(-c2ccc(Cl)cc2O)c(C)c1C [compound 30] |
| B (4 to 16 μg/ml) | – | Cc1cc(C)n(-c2ccc(N)cc2O)n1 [compound 31] |
| B (4 to 16 μg/ml) | – | Cc1nn(-c2ccc([N+](=O)[O-])cc2O)c(C)c1C [compound 32] |
| A (≦2 μg/ml) | – | Cc1cc(C)n(-c2ccc(O)cc2O)n1 [compound 33] |
| B (4 to 16 μg/ml) | – | Cc1nn(-c2ccc(N)cc2O)c(C)c1C [compound 34] |
| C (16 to 32 μg/ml) | – | COC(=O)c1ccc(-n2nc(C)cc2C)c(O)c1 [compound 35] |
| D (>32 to 64 μg/ml) | – | Cc1cc(C)n(-c2c(N)cccc2O)n1 [compound 36] |

| MIC (T. rubrum) [1] | MIC (T. mentagrophytes) [2] | SMILES |
| --- | --- | --- |
| B (4 to 16 μg/ml) | – | Cc1cc(C)n(-c2ccc(C(=O)O)cc2O)n1 [compound 37] |
| B (4 to 16 μg/ml) | – | Cc1cc(C)n(-c2ccc(C(=O)N(C)C)cc2O)n1 [compound 38] |
| C (16 to 32 μg/ml) | – | Cc1cc(C)n(-c2ccc(C(N)=O)cc2O)n1 [compound 39] |
| D (>32 to 64 μg/ml) | – | Cc1nn(-c2ccc(C(=O)O)cc2O)c(C)c1C [compound 40] |
| D (>32 to 64 μg/ml) | – | Cc1nn(-c2ccc(C(N)=O)cc2O)c(C)c1C [compound 41] |
| D (>32 to 64 μg/ml) | – | Cc1nn(-c2ccc(C(N)=O)cc2O)c(C)c1Cl [compound 42] |
| D (>32 to 64 μg/ml) | – | Cc1cc(C)n(-c2c(O)cccc2O)n1 [compound 43] |
| A (≦2 μg/ml) | A (≦1 μg/ml) | Cc1ccc(-n2nc(C)cc2C)c(O)c1 [compound 44] |
| A (≦2 μg/ml) | A (≦1 μg/ml) | COc1ccc(-n2nc(C)cc2C)c(O)c1 [compound 45] |
| D (>32 to 64 μg/ml) | – | Cc1cc(C)n(-c2c(C)cccc2O)n1 [compound 46] |
| B (4 to 16 μg/ml) | – | Cc1cc(C)n(-c2ccc(CO)cc2O)n1 [compound 47] |
| B (4 to 16 μg/ml) | – | CNc1ccc(-n2nc(C)cc2C)c(O)c1 [compound 48] |
| D (>32 to 64 μg/ml) | – | Cc1ccc(O)c(-n2nc(C)cc2C)c1 [compound 49] |
| B (4 to 16 μg/ml) | – | Cc1cc(C)n(-c2ccc(C(F)(F)F)cc2O)n1 [compound 50] |
| D (>32 to 64 μg/ml) | – | Cc1cc(C)n(-c2cccc(C)c2O)n1 [compound 51] |
| A (≦2 μg/ml) | A (≦1 μg/ml) | CCc1ccc(-n2nc(C)cc2C)c(O)c1 [compound 52] |
| B (4 to 16 μg/ml) | – | Cc1nn(-c2ccccc2O)c(C)c1F [compound 53] |
| A (≦2 μg/ml) | A (≦1 μg/ml) | Cc1cc(C)n(-c2ccc(Br)cc2O)n1 [compound 54] |
| A (≦2 μg/ml) | A (≦1 μg/ml) | Cc1nn(-c2ccc(Br)cc2O)c(C)c1Cl [compound 55] |
| A (≦2 μg/ml) | A (≦1 μg/ml) | Cc1nn(-c2ccc(Br)cc2O)c(C)c1C [compound 56] |
| B (4 to 16 μg/ml) | – | CC(=O)Oc1ccc(-n2nc(C)cc2C)c(O)c1 [compound 57] |
| A (≦2 μg/ml) | – | CC(=O)Oc1ccc(-n2nc(C)c(Cl)c2C)c(O)c1 [compound 58] |
| B (4 to 16 μg/ml) | – | CC(=O)Oc1ccc(-n2nc(C)c(C)c2C)c(O)c1 [compound 59] |
| A (≦2 μg/ml) | A (≦1 μg/ml) | Cc1nn(-c2ccc(O)cc2O)c(C)c1Cl [compound 63] |
